Results published in paper PMC12372887, “Mechanism and cellular actions of the potent AMPK inhibitor BAY-3827” (Science Advances, 2025).
Values joined by “and” are separate entries in the source; they are usually repeats but may differ in a detail not shown here. Equal values may be shown once. Read-outs that look alike come from different tables or passages of the source.

What was measured:
[1] = target: T1, AMPKα1β1γ1 (Homo sapiens, UniProt Q13131); assay: Cell-free AMPK kinase assay (SAMS peptide); type: biochemical; details: 200 μM ATP; 0 to 1 μM compound
T1 construct: made in house; host or cells: HEK293 (transient transfection, anti-FLAG immunoprecipitate)
Procedure: (§1) Heterotrimeric human AMPK FLAG- α1β1γ1, FLAG- α2β1γ1, and FLAG- α2β2γ1, as well as human FLAG-CaMKK2 and FLAG-ULK1, were produced in mammalian HEK293 cells as described ([66], [67]). For AMPK expression, the cells were triply transfected at 60% confluency using FuGene HD (Roche Applied Science) and 1 μg of pcDNA3 plasmid expression constructs for AMPK Flag-α1, β1-Myc, β2-Myc, and HA-γ1. For CaMKK2 expression, the cells were transfected with 1 μg of pcDNA3 Flag-CaMKK2 plasmid. For ULK1 expression, the cells were transfected with […] of pcDNA3 FLAG-ULK1 plasmid. After 48 hours, the transfected cells were harvested by rinsing with ice-cold PBS, followed by rapid lysis using 500 μl of lysis buffer. AMPK, CaMKK2, and ULK1 kinase activities were determined by phosphorylation of synthetic peptide substrates: SAMS (HMRSAMSGLHLVKRR), CaMKKtide ([…]), and S108tide. (KLPLTRSHNNFVARRR), respectively. Briefly, recombinant AMPK, CaMKK2, or ULK1 were immunoprecipitated from 10 μg of transfected cultured cell lysate using 10 μl of anti-FLAG M2 agarose beads [50% (v/v)] (Merck MilliporeSigma), washed, and then added to a 25-μl reaction containing assay buffer [50 mM Hepes-NaOH (pH 7.4), 1 mM DTT, and 0.02% (v/v) Brij-35], 200 μM synthetic peptide substrate (SAMS, CaMKKtide, or S108tide), 200 or 20 μM [γ-^32P]-ATP (PerkinElmer), 5 mM MgCl2, in the presence of 0 to 1 μM BAY-3827 or BAY-974. Reactions were performed at 30°C and terminated after 10 min by spotting 15 μl onto phosphocellulose paper. Radioactivity was quantified by liquid scintillation counting. Data visualization and nonlinear regression fitting were performed in GraphPad Prism v10.
(§2) Data points are plotted as means ± SEM. Data were inputted, and all statistical tests were performed using GraphPad Prism, version 10.1.0. One- or two-way analysis of variance (ANOVA) statistical tests were conducted using Tukey’s correction for multiple comparisons; specific test will be stated in the figure legend. Significance was accepted as P < 0.05. N number and statistical details for each experiment are reported in each figure legend. […] To estimate IC50 values, nonlinear regression fitting was conducted using the model (Inhibitor) versus response—variable slope in GraphPad Prism (version 10.1.0) and estimating values reported in nanomolar. To estimate binding affinities (Kd) from performed spectral shift binding assays, data were fitted using a one-site total model [Y = BmaxX/(Kd + X) + NSX + Background] where X is the ligand concentration, Bmax represents the maximum binding, and NS is the slope of the nonlinear regression of Y/X. Values are reported in means ± SEM in micromolar.

[2] = target: T2, AMPKα2β1γ1 (Homo sapiens, UniProt P54646); assay: Cell-free AMPK kinase assay (SAMS peptide); type: biochemical; details: 200 μM ATP; 0 to 1 μM BAY-974
T2 construct: made in house; host or cells: HEK293 (transient transfection, anti-FLAG immunoprecipitate)
Procedure: as §1, §2

[3] = target: T3, AMPKα2β2γ1 (Homo sapiens, UniProt P54646); assay: Cell-free AMPK kinase assay (SAMS peptide); type: biochemical; details: 200 μM ATP; 0 to 1 μM compound
T3 construct: made in house; host or cells: HEK293 (transient transfection, anti-FLAG immunoprecipitate)
Procedure: as §1, §2

[4] = target: T4, AMPKα1β1γ1 (Homo sapiens, UniProt P54619+Q13131+Q9Y478); assay: Cell-free AMPK kinase assay (SAMS peptide); type: biochemical
T4 construct: made in house; host or cells: HEK293 (transient transfection, anti-FLAG immunoprecipitate)
Procedure: as §1, §2

[5] = target: T5, AMPKα2β2γ1 (Homo sapiens, UniProt O43741+P54619+P54646); assay: Cell-free AMPK kinase assay (SAMS peptide); type: biochemical
T5 construct: made in house; host or cells: HEK293 (transient transfection, anti-FLAG immunoprecipitate)
Procedure: as §1, §2

[6] = target: T6, AMPKα2 (T172D)–α2KD (Homo sapiens, UniProt P54646, T172D); assay: Spectral shift (Dianthus) binding assay; details: read-out: dissociation constant (Kd)
T6 construct: human AMPK-α2 KD (α2KD; residues 6 to 280); made in house; host or cells: E. coli BL21(DE3)-RIL
Procedure: (§3) The binding affinity of BAY-3827 to α2KD, AMPK (T172D)-α2KD, or AMPK complexes α2β2γ1 and α2β2γ3 was measured by Dianthus (Nano Temper Technologies). BAY-3827 was diluted from a 100 mM stock in DMSO to 0.5 mM working concentration in the assay buffer (PBS with 0.005% Tween-20) with a final DMSO concentration of 2.5%, which was kept constant throughout the concentration gradient of the compound. For additional experiments, assay buffer containing Hepes 25 mM, NaCl 250 mM, and 0.005% Tween-20 was used to optimize the assay, enhancing signal-to-noise ratios. His-tagged α2KD, T172D-α2KD, or His-tagged AMPK-α2β2γ1 or α2β2γ3 complexes were labeled with His-tag labeling dye (His-Tag Labeling Kit RED-tris-NTA 2nd Generation). The ratio of fluorescence intensities (670/650 nm) over BAY-3827 concentration gradient ranging from 250 μM down to 0.015 μM. The concentration gradient was prepared by 1:1 serial dilution over 16 steps, with a setup of two to three technical replicates for each concentration. The binding experiments were repeated three times, and the mean Kd values of the inhibitor are reported in the appropriate figure alongside ± SEM (micromolar) displaying a representative graph. A concentration of 50 nM of the corresponding protein target was used in each performed assay. The ratio of fluorescence intensities was measured over BAY-3827 concentration gradient in GraphPad Prism using nonlinear regression (one site-total binding). Data quality was assessed by monitoring XYZ scans for each well to detect air bubbles or aggregation where present following the manufacturer’s instructions.
as §2

[7] = target: T7, AMPKα2 kinase domain (α2KD), WT (Homo sapiens, UniProt P54646); assay: Spectral shift (Dianthus) binding assay; details: read-out: dissociation constant (Kd)
T7 construct: human AMPK-α2 KD (α2KD; residues 6 to 280); made in house; host or cells: E. coli BL21(DE3)-RIL
Procedure: as §3, §2

[8] = target: T8, nonphosphorylated AMPKα2β2γ1 complex (Homo sapiens, UniProt O43741+P54619+P54646); assay: Spectral shift (Dianthus) binding assay; details: read-out: dissociation constant (Kd)
T8 construct: For expression of full-length AMPKα2β2γ1, α2β2γ2, and α2β2γ3 complexes; made in house; host or cells: E. coli BL21(DE3)-RIL
Procedure: as §3, §2

[9] = target: T9, nonphosphorylated AMPKα2β2γ3 complex (Homo sapiens, UniProt O43741+P54646+Q9UGI9); assay: Spectral shift (Dianthus) binding assay; details: read-out: dissociation constant (Kd)
T9 construct: For expression of full-length AMPKα2β2γ1, α2β2γ2, and α2β2γ3 complexes; made in house; host or cells: E. coli BL21(DE3)-RIL
Procedure: as §3, §2

[10] = tested on: mouse primary adipocytes; assay: Glucose uptake of primary adipocytes; type: cell-based; details: varying doses

T4 sequence (Q13131 whole entry): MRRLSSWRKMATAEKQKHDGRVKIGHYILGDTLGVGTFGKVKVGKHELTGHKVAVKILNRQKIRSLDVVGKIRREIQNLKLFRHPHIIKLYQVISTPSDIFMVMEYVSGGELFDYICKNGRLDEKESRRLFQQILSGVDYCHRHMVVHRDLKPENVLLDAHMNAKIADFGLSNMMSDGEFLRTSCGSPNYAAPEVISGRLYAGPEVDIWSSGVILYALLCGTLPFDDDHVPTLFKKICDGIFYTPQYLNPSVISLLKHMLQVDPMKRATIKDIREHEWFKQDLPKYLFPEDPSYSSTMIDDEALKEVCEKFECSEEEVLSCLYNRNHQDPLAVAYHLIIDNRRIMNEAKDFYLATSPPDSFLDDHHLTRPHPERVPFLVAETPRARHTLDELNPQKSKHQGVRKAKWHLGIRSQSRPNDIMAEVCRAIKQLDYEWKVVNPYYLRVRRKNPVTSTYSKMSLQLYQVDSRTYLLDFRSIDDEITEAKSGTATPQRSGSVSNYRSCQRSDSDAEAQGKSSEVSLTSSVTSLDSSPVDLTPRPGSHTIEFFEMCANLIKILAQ
T4 sequence (Q9Y478 whole entry partner): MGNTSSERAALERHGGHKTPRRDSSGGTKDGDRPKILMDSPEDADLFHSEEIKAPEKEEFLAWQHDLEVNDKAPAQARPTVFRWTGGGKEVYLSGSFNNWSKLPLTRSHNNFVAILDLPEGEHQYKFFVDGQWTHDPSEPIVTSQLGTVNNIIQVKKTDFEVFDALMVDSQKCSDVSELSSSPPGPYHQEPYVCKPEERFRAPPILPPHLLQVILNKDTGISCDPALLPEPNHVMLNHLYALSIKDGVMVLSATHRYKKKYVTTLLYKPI
T4 sequence (P54619 whole entry partner): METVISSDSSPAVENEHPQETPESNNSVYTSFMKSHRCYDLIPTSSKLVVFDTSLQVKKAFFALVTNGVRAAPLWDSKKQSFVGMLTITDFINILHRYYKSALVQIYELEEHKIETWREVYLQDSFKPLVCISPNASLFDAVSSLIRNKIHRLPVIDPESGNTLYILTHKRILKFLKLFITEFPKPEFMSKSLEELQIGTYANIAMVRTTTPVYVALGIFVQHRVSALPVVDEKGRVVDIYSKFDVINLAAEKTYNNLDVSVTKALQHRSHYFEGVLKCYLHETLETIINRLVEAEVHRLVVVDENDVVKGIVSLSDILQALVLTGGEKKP
T5 sequence (P54646 whole entry): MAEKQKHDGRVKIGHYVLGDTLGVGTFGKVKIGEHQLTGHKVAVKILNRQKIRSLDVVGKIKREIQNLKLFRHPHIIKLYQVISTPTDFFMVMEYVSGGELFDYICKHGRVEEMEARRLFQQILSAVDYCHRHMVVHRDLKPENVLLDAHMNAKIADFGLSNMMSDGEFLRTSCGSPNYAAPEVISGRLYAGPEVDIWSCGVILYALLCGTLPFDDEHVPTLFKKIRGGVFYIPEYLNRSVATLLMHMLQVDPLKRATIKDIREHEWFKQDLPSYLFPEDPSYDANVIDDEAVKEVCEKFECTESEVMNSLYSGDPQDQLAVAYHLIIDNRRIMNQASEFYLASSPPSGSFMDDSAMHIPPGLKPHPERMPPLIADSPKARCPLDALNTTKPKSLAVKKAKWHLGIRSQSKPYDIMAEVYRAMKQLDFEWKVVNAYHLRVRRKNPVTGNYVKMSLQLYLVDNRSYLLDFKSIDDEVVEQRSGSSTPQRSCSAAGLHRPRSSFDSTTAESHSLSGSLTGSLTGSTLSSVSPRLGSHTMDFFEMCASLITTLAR
T5 sequence (O43741 whole entry partner): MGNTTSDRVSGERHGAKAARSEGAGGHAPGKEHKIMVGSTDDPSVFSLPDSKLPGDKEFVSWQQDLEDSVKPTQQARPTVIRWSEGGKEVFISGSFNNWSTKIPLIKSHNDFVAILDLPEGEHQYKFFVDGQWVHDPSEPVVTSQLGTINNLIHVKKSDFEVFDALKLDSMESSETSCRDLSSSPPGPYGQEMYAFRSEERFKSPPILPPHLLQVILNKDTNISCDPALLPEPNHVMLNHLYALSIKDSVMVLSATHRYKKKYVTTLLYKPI
T5 sequence (P54619 whole entry partner): as the sequence (P54619 whole entry partner) above
T6 sequence (P54646 6-280 T172D): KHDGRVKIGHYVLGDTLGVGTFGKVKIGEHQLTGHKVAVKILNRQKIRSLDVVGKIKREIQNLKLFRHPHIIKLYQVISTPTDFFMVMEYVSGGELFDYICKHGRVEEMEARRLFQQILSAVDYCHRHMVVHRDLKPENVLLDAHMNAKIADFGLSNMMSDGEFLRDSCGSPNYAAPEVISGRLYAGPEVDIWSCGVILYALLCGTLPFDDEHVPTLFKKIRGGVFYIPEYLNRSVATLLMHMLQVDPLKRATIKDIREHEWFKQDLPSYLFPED
T7 sequence (P54646 6-280): as the sequence (P54646 6-280 T172D) above, with D167T counted along it
T1 sequence (Q13131 whole entry): as the sequence (Q13131 whole entry) above
T1 sequence (Q9Y478 whole entry partner): as the sequence (Q9Y478 whole entry partner) above
T1 sequence (P54619 whole entry partner): as the sequence (P54619 whole entry partner) above
T2 sequence (P54646 whole entry): as the sequence (P54646 whole entry) above
T2 sequence (Q9Y478 whole entry partner): as the sequence (Q9Y478 whole entry partner) above
T2 sequence (P54619 whole entry partner): as the sequence (P54619 whole entry partner) above
T3 sequence (P54646 whole entry): as the sequence (P54646 whole entry) above
T3 sequence (O43741 whole entry partner): as the sequence (O43741 whole entry partner) above
T3 sequence (P54619 whole entry partner): as the sequence (P54619 whole entry partner) above
T8 sequence (P54646 whole entry): as the sequence (P54646 whole entry) above
T8 sequence (O43741 whole entry partner): as the sequence (O43741 whole entry partner) above
T8 sequence (P54619 whole entry partner): as the sequence (P54619 whole entry partner) above
T9 sequence (P54646 whole entry): as the sequence (P54646 whole entry) above
T9 sequence (O43741 whole entry partner): as the sequence (O43741 whole entry partner) above
T9 sequence (Q9UGI9 whole entry partner): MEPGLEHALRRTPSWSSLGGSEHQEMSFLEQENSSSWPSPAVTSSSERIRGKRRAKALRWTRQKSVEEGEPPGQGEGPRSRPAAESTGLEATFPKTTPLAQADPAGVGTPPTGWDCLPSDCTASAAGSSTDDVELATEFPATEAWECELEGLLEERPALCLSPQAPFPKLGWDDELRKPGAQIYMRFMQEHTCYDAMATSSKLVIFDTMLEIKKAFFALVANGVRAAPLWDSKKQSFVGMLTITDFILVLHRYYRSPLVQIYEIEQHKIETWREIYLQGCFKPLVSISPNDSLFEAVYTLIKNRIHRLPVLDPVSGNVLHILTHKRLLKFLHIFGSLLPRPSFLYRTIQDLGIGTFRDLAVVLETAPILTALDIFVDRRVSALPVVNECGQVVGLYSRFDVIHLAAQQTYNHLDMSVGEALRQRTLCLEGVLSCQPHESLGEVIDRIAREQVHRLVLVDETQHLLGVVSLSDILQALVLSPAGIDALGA

SMILES	inhibitory effect on AMPK complex [1]	inhibitory effect on AMPK complex [2]	inhibitory effect on AMPK complex [3]	IC50 ([4]; 20 μM ATP) [nM]	IC50 ([4]; 200 μM ATP) [nM]	IC50 ([5]; 20 μM ATP)	IC50 ([5]; 200 μM ATP) [nM]	Kd ([6]; +3 mM DTT) [nM]	Kd ([6]; - DTT) [nM]	Kd ([7]; +3 mM DTT) [nM]	Kd ([7]; without DTT) [nM]	Kd [8] [nM]	Kd [9] [nM]	basal and insulin-stimulated glucose uptake [10]
CC1=C(C#N)C(c2ccc3c(c2)c(NC(=O)c2ccccc2C)nn3C)C(C#N)=C(C)N1 [BAY-974, N-[5-(3,5-dicyano-2,6-dimethyl-1,4-dihydropyridin-4-yl)-1-methylindazol-3-yl]-2-methylbenzamide]	no effect	no effect	no effect	–	–	–	–	–	–	–	–	–	–	–
CCc1ccccc1C(=O)Nc1n[nH]c2c(C)c(F)c(C3C(C#N)=C(C)N(C)C(C)=C3C#N)cc12 [BAY-3827, N-[5-(3,5-dicyano-1,2,6-trimethyl-4H-pyridin-4-yl)-6-fluoro-7-methyl-1H-indazol-3-yl]-2-ethylbenzamide]	–	–	–	1.8	31.2	2.8 nM and 2.83 nM	36.5	9010 ± 1850	8650 ± 1380	28600 ± 12500	1230	11300 ± 5230	21800 ± 8510	not significantly affected
